≈ marks a conversion by molar mass, not a printed value. Read-outs that look alike come from different tables or passages of the source.
Tests used:
Type in all cases: cell-based
Enterobacteriaceae = assay: organism not typed; details: Enterobacteriaceae, 2029 isolates; read-out: MIC90
E. coli (WT) = assay: microbe, parasite or virus in culture; details: Escherichia coli; E. coli (WT), 214 isolates; read-out: MIC90
E. coli (ESBL) = assay: microbe, parasite or virus in culture; details: Escherichia coli
Klebsiella spp. (WT) = assay: microbe, parasite or virus in culture; details: Klebsiella spp. (WT), 159 isolates; read-out: MIC90
Klebsiella spp. (ESBL) = assay: microbe, parasite or virus in culture; details: Klebsiella
Klebsiella spp. (KPC) = assay: microbe, parasite or virus in culture; details: Klebsiella
[1] = system: Enterobacter aerogenes (WT); assay: microbe, parasite or virus in culture; details: Klebsiella aerogenes; Enterobacter aerogenes (WT), 199 isolates; read-out: MIC90
[2] = system: Enterobacter aerogenes (AmpC); assay: microbe, parasite or virus in culture; details: Klebsiella aerogenes
[3] = system: Citrobacter freundii (AmpC); assay: microbe, parasite or virus in culture; details: Citrobacter freundii
[4] = system: Morganella morganii (AmpC); assay: microbe, parasite or virus in culture; details: Morganella morganii
Proteus mirabilis (WT) = assay: microbe, parasite or virus in culture; details: Proteus mirabilis (WT), 235 isolates; read-out: MIC90
Proteus vulgaris (WT) = assay: microbe, parasite or virus in culture; details: Proteus vulgaris (WT), 41 isolates; read-out: MIC90
Providencia spp.(all) = assay: microbe, parasite or virus in culture; details: Providencia spp.(all), 68 isolates; read-out: MIC90
S. marcescens (AmpC) = assay: microbe, parasite or virus in culture; details: Serratia marcescens
P. aeruginosa = assay: In vitro activity against P. aeruginosa clinical isolates; details: P. aeruginosa, 2,008 clinical isolates; GSK2251052 based on potential susceptible breakpoint of ≦4 μg/mL
Protocol: GSK2251052 was tested for activity against P. aeruginosa, and its activity was compared to other antibiotics of known activity. The results are shown below in Tables 2a and 2b. Of 2,008 clinical isolates tested (from 2009-2010 subjects, of which 40% were from North America) greater than 90% were susceptible to GSK2251052 based on a potential susceptible breakpoint of ≦4 μg/mL.

[5] = system: E. coli ATCC 25922 wild type and mutants; assay: MIC, wild type and GSK2251052 resistant mutants; details: Escherichia coli
Protocol: (§1) Spontaneous Resistance Frequency was determined in vitro for GSK2251052 and the resistance mutants in E. coli ATCC 25922, K. pneumoniae ATCC 13883, and P. aeruginosa ATCC 27853 strains were characterized. GSK2251052 was prepared as described in U.S. Pat. No. 7,816,344 (the entire contents of which are hereby incorporated by reference herein). LB broth, Mueller Hinton II broth (adjusted), and Difco noble agar were obtained from Becton Dickinson (Cockeysville, Md., USA). M9 minimal broth containing 1×M9 salt, 0.5 μg/ML thiamine, 1 mM MgSO4, 0.1 mM CaCl2, 2% glucose, was obtained from Teknova (Hollister, Calif., USA). Antibacterial agents ciprofloxacin, ceftazidime, chloramphenicol, gentamycin, kanamycin, polymixin B, tobramycin and trimethoprim, and amino acids were obtained from Sigma Chemicals (St. Louis, Mo., USA). Strains were obtained from ATCC (Manassas, Va., USA).
(§2) Susceptibility tests were performed following the recommendations for aerobic bacteria (M7-A7) from the Clinical and Laboratories Standards Institute (CLSI).
(§3) Laboratory generated mutants resistant to GSK2251052 contain mutations in the editing domain of LeuRS. Six to ten GSK2251052 resistant colonies of E. coli ATCC 25922, K. pneumoniae ATCC 13883 and P. aeruginosa ATCC 27853 were selected for further analysis and their MICs to GSK2251052 were determined (Table 4-7).

[6] = system: K. pneumoniae ATCC 13883 wild type and mutants; assay: MIC, wild type and GSK2251052 resistant mutants; details: Klebsiella pneumoniae
Protocol: as §1, §2, §3

[7] = system: P. aeruginosa ATCC 27853 wild type and mutants; assay: MIC, wild type and GSK2251052 resistant mutants; details: Pseudomonas aeruginosa
Protocol: as §1, §2, §3

[8] = system: E. coli ATCC 25922, K. pneumoniae ATCC 13883 and P. aeruginosa ATCC 27853; assay: MIC, three strains and their mutants summarised; details: MIC in E. coli, P. aeruginosa and K. pneumoniae mutants versus wild-type
Protocol: as §1, §2, §3
GSK2251052 resistant mutants were not cross-resistant to commercial antibiotics.

E. coli ATCC 25922 = assay: Spontaneous frequency of resistance; details: 24 h
Protocol: as §1
(§4) Selection of resistance to GSK2251052 was attempted by spreading various amounts of bacteria onto MHBII noble agar plates containing 4×MIC (minimum inhibitory concentration) or 10×MIC of GSK2251052. Colonies were counted after 24 hours and 48 hours incubation at 37° C. The resistance of these colonies was confirmed by their ability to grow on plates containing GSK2251052 at either 4× or 10×MIC. Frequency of resistance was determined by dividing the number of resistant mutants by the total number of cells plated as determined by plating dilutions of the overnight culture on LB plates.

K. pneumoniae ATCC 13883 = assay: Spontaneous frequency of resistance; details: 24 h
Protocol: as §1, §4

P. aeruginosa ATCC 27853 = assay: Spontaneous frequency of resistance; details: 24 h
Protocol: as §1, §4

[9] = system: Enterobacter cloacae (WT); assay: microbe, parasite or virus in culture; details: 202 isolates, read-out: MIC90
[10] = system: Enterobacter cloacae (AmpC); assay: microbe, parasite or virus in culture; details: Enterobacter cloacae

Compound	MIC90 (Enterobacteriaceae)	MIC90 (E. coli (WT))	MIC90 (E. coli (ESBL))	MIC90 (Klebsiella spp. (WT))	MIC90 (Klebsiella spp. (ESBL))	MIC90 (Klebsiella spp. (KPC))	MIC90 [1]	MIC90 [2]	MIC90 [3]	MIC90 [4]	MIC90 (Proteus mirabilis (WT))	MIC90 (Proteus vulgaris (WT))	MIC90 (Providencia spp.(all))	MIC90 (S. marcescens (AmpC))	% susceptible (P. aeruginosa)	also measured
CO/N=C(\C(=O)N[C@@H]1C(=O)N2C(C(=O)[O-])=C(C[N+]3(C)CCCC3)CS[C@H]12)c1csc(N)n1 [Cefepime]	4 µg/mL (≈ 8.32 µM)	≤ 1 µg/mL	> 32 µg/mL	≤ 1 µg/mL	> 32 µg/mL	> 32 µg/mL	≤ 1 µg/mL	8 µg/mL (≈ 16.6 µM)	16 µg/mL (≈ 33.3 µM)	> 32 µg/mL	≤ 1 µg/mL	≤ 1 µg/mL	> 32 µg/mL	8 µg/mL (≈ 16.6 µM)	75.3%	–
O=C(N[C@H](CO)[C@H](O)c1ccc([N+](=O)[O-])cc1)C(Cl)Cl [Chloramphenicol]	–	–	–	–	–	–	–	–	–	–	–	–	–	–	–	MIC ([5]; ATCC25922, E wt, read-out: MICs): 8 µg/mL (≈ 24.8 µM); MIC ([5]; ATCC25922, read-out: MICs, mutant E 101): 8 µg/mL (≈ 24.8 µM); MIC ([5]; ATCC25922, read-out: MICs, mutant E 102): 8 µg/mL (≈ 24.8 µM); MIC ([5]; ATCC25922, read-out: MICs, mutant E 107): 8 µg/mL (≈ 24.8 µM); MIC ([6]; ATCC13883, K wt., read-out: MICs): 4 µg/mL (≈ 12.4 µM); MIC ([6]; ATCC13883, read-out: MICs, mutant K 104): 8 µg/mL (≈ 24.8 µM); MIC ([6]; ATCC13883, read-out: MICs, mutant K 105): 8 µg/mL (≈ 24.8 µM); MIC ([6]; ATCC13883, read-out: MICs, mutant K 107): 8 µg/mL (≈ 24.8 µM); MIC ([6]; ATCC13883, read-out: MICs, mutant K 108): 8 µg/mL (≈ 24.8 µM); MIC ([6]; ATCC13883, read-out: MICs, mutant K 110): 8 µg/mL (≈ 24.8 µM); MIC ([7]; ATCC27853, P wt., read-out: MICs): > 64 µg/mL; MIC ([7]; ATCC27853, read-out: MICs, mutant P 101): > 64 µg/mL; MIC ([7]; ATCC27853, read-out: MICs, mutant P106): > 64 µg/mL; MIC ([7]; ATCC27853, read-out: MICs, mutant P108): > 64 µg/mL; cross-resistance of GSK2251052 resistant mutants [8]: did not have any significant difference in MIC values than wild-type
C[C@@H](O)[C@H]1C(=O)N2C(C(=O)O)=C(S[C@@H]3CN[C@H](C(=O)N(C)C)C3)[C@H](C)[C@H]12 [Meropenem]	–	–	–	–	–	–	–	–	–	–	–	–	–	–	79.3%	Frequency of Resistance (E. coli ATCC 25922; 4 X MIC): <4 × 10^−9; Frequency of Resistance (E. coli ATCC 25922; 10 X MIC): <4 × 10^−9; Frequency of Resistance (K. pneumoniae ATCC 13883; 4 X MIC): <3 × 10^−9; Frequency of Resistance (K. pneumoniae ATCC 13883; 10 X MIC): <3 × 10^−9; Frequency of Resistance (P. aeruginosa ATCC 27853; 4 X MIC): 7 × 10^−7; Frequency of Resistance (P. aeruginosa ATCC 27853; 10 X MIC): <1 × 10^−9
CC1(C)S[C@@H]2[C@H](NC(=O)[C@H](N)c3ccccc3)C(=O)N2[C@H]1C(=O)O [Ampicillin]	> 64 µg/mL	> 64 µg/mL	> 64 µg/mL	> 64 µg/mL	> 64 µg/mL	> 64 µg/mL	> 64 µg/mL	> 64 µg/mL	> 64 µg/mL	> 64 µg/mL	> 64 µg/mL	> 64 µg/mL	> 64 µg/mL	> 64 µg/mL	–	MIC90 [9]: > 64 µg/mL; MIC90 [10]: > 64 µg/mL
